# According to patent US20180256673A1, “METHODS FOR TREATING FUNGAL INFECTIONS” (priority 2015, published 2018):
# Where “and” joins values, the source holds several entries; their conditions need not be identical. Equal entries are not always repeated. Where two headings read alike, the source gives them in different places. Starred links: 1 amine or outer side, 2 acyl side, 3 side chain; linkers in the order of their positions; H or OH if unused. Positions of bridges follow the written chain, without caps; N, C: chain ends. Non-standard residues stand in square brackets, D forms with d. Residues, ends and D or L forms follow the SMILES beside them. *: point of attachment. pTerphenylCO(4''-OnC5H11) = CCCCCOc1ccc(-c2ccc(-c3ccc(C(=O)*)cc3)cc2)cc1; Orn(4R-OH,5R-OH) = O=C([C@H](C[C@@H](O)[C@@H](O)N[*:3])N[*:1])[*:2]; hTyr(3S-OH,4S-OH) = N[C@H](C(=O)O)[C@H](O)[C@@H](O)c1ccc(O)cc1; Pro(3S-OH,4S-Me) = C[C@H]1CN[C@H](C(=O)O)[C@H]1O; Hyp = O=C(O)[C@@H]1C[C@@H](O)CN1
# Tests used:
# C. albicans NRRL Y-477 [1] = assay type: cell-based, Candida albicans
# Protocol: (§1) Spontaneous mutant selection. […] Three individual colonies from each strain were used to start cultures in RPMI. […] One milliliter aliquots were spread onto SDA plates containing drug with sterile glass beads. Starting viable count was enumerated by triplicate plating of serial dilutions of the starting inoculum. […] Glycerol stocks of putative mutant colonies were stored at −80° C. […] Spontaneous mutation frequencies were calculated by dividing the number of resistant colonies on a given plate by the starting inoculum plated. A subset of mutants (weighted heavily towards those selected with CMP1) were then evaluated by MIC and sequencing of FKS gene hot spot regions.
# C. parapsilosis CP02 [2] = assay type: cell-based, Candida parapsilosis
# Protocol: as §1
# C. krusei ATCC 6258 [3] = assay type: cell-based, Candida krusei
# Protocol: as §1
# C. albicans NRRL Y-477 [4] = assay: microbe, parasite or virus in culture; assay type: cell-based, Candida albicans; conditions: for MIC: Candida albicans
# [5] = test system: C. glabrata ATCC 90030, ATCC 2001; assay: microbe, parasite or virus in culture; assay type: cell-based, Candida glabrata; conditions: for MIC fold-shift: WT to P20; for MIC: Nakaseomyces glabratus
# C. parapsilosis CP02 [6] = assay: microbe, parasite or virus in culture; assay type: cell-based, Candida parapsilosis; conditions: for MIC: Lodderomyces parapsilosis
# C. krusei ATCC 6258 [7] = assay: microbe, parasite or virus in culture; assay type: cell-based, Candida krusei; conditions: for MIC: Pichia kudriavzevii
# [8] = test system: C. albicans vaginal isolates; assay: Susceptibility testing of VVC clinical isolates at pH 7 and 4 (CLSI M27-A3); assay type: cell-based, Candida albicans; conditions: Candida albicans
# [9] = SDA, minimum concentration to cleanly inhibit growth
smiles,measurement,setting,value
"CCCCCOc1ccc(-c2ccc(-c3ccc(C(=O)N[C@H]4C[C@@H](O)[C@@H](O)NC(=O)[C@@H]5[C@@H](O)[C@@H](C)CN5C(=O)[C@H]([C@@H](C)O)NC(=O)[C@H]([C@H](O)[C@@H](O)c5ccc(O)cc5)NC(=O)[C@@H]5C[C@@H](O)CN5C(=O)[C@H]([C@@H](C)O)NC4=O)cc3)cc2)cc1 [ANID, anidulafungin] ({pTerphenylCO(4''-OnC5H11)}-[Orn(4R-OH,5R-OH)]T[Hyp][hTyr(3S-OH,4S-OH)]T[Pro(3S-OH,4S-Me)]; lactam 1-C)",Median mutation frequency,C. albicans NRRL Y-477 [1],1.59E−07
same,Plate concentration,C. albicans NRRL Y-477 [1]; [9],0.015 µg/mL
same,Freq. (replicate mutation frequency),C. albicans NRRL Y-477 [1]; replicate plates 1-3,1.88E−07 and 1.59E−07 and 1.56E−07
same,Median mutation frequency,C. parapsilosis CP02 [2],<1.04E−08
same,Plate concentration,C. parapsilosis CP02 [2]; [9],16 µg/mL
same,Freq. (replicate mutation frequency),C. parapsilosis CP02 [2]; replicate plates 1-3,<1.04E−08 (2×) and <9.62E−09
same,Median mutation frequency,C. krusei ATCC 6258 [3],<3.38E−09
same,Plate concentration,C. krusei ATCC 6258 [3]; [9],0.25 µg/mL
same,Freq. (replicate mutation frequency),C. krusei ATCC 6258 [3]; replicate plates 1-3,<3.38E−09 (2×) and <3.51E−09
same,MIC,"C. albicans NRRL Y-477 [4]; NRRLY477, 48 h, NRRL Y-477 P20-1, selecting drug ANID, Fks1 HS1 S645Y, 48 h read",4 µg/mL
same,MIC,"C. albicans NRRL Y-477 [4]; NRRLY477, 48 h, NRRL Y-477 P20-1, selecting drug CMP1, 48 h read",0.125 µg/mL
same,MIC,"C. albicans NRRL Y-477 [4]; NRRLY477, NRRL Y-477 P20-1, selecting drug CAS",0.015 µg/mL
same,MIC,"C. albicans NRRL Y-477 [4]; NRRLY477, read-out: MIC P20, NRRL Y-477, total population after 20 passages with the selecting drug, MIC of selecting drug",4 µg/mL
same,MIC fold-shift,"C. albicans NRRL Y-477 [4]; NRRL Y-477, WT to P20",256
same,MIC fold-shift,[5]; ATCC 2001,64
same,MIC fold-shift,[5]; ATCC 90030,64
same,MIC,"[5]; 48 h, ATCC 90030 P20-1, selecting drug ANID, Fks2 HS1 D666I, 48 h read",4 µg/mL
same,MIC,"[5]; 48 h, ATCC 90030 P20-1, selecting drug CAS, Fks2 HS1 F659I D666Y, 48 h read",8 µg/mL
same,MIC,"[5]; ATCC 2001 P20-2, selecting drug ANID, Fks1 HS1 D632Y",4 µg/mL
same,MIC,"[5]; ATCC 2001 P20-2, selecting drug CAS",2 µg/mL
same,MIC,"[5]; ATCC 2001 P20-2, selecting drug CMP1",1 µg/mL
same,MIC,"[5]; ATCC 90030 P20-2, selecting drug CMP1",1 µg/mL
same,MIC,"[5]; read-out: MIC P20, ATCC 2001, total population after 20 passages with the selecting drug, MIC of selecting drug",4 µg/mL
same,MIC,"[5]; read-out: MIC P20, ATCC 90030, total population after 20 passages with the selecting drug, MIC of selecting drug",4 µg/mL
same,MIC fold-shift,"C. parapsilosis CP02 [6]; CP02, WT to P20",1
same,MIC,"C. parapsilosis CP02 [6]; CP02, CP02 P20-1, selecting drug ANID",4 µg/mL
same,MIC,"C. parapsilosis CP02 [6]; CP02, CP02 P20-1, selecting drug CAS",4 µg/mL
same,MIC,"C. parapsilosis CP02 [6]; CP02, CP02 P20-1, selecting drug CMP1",8 µg/mL
same,MIC,"C. parapsilosis CP02 [6]; CP02, read-out: MIC P20, CP02, total population after 20 passages with the selecting drug, MIC of selecting drug",4 µg/mL
same,MIC fold-shift,"C. krusei ATCC 6258 [7]; ATCC 6258, WT to P20",2
same,MIC,C. krusei ATCC 6258 [7]; ATCC6258,0.125 µg/mL
same,MIC,"C. krusei ATCC 6258 [7]; ATCC6258, read-out: MIC P20",0.125 µg/mL
same,MIC90,"[8]; 24 h, pH 4",0.03 µg/mL
same,MIC90,"[8]; 24 h, pH 7",0.008 µg/mL
same,MIC90,"[8]; 48 h, pH 4",0.06 µg/mL
same,MIC,"[8]; 48 h, pH 4, fluconazole-resistant isolate 1, pH 4",0.03 µg/mL
same,MIC,"[8]; 48 h, pH 4, fluconazole-resistant isolate 2, pH 4",0.03 µg/mL
same,MIC,"[8]; 48 h, pH 4, fluconazole-resistant isolate 3, pH 4",0.03 µg/mL
same,MIC,"[8]; 48 h, pH 4, fluconazole-resistant isolate 4, pH 4",0.06 µg/mL
same,MIC,"[8]; 48 h, pH 4, fluconazole-resistant isolate 5, pH 4",0.125 µg/mL
same,MIC,"[8]; 48 h, pH 4, fluconazole-resistant isolate 6, pH 4",0.06 µg/mL
same,MIC,"[8]; 48 h, pH 4, fluconazole-resistant isolate 7, pH 4",0.06 µg/mL
same,MIC,"[8]; 48 h, pH 4, fluconazole-resistant isolate 8, pH 4",0.06 µg/mL
same,MIC,"[8]; 48 h, pH 4, fluconazole-resistant isolate 9, pH 4",0.25 µg/mL
same,MIC,"[8]; 48 h, pH 4, fluconazole-resistant isolate 10, pH 4",0.06 µg/mL
same,MIC90,"[8]; 48 h, pH 7",0.03 µg/mL
same,MIC,"[8]; 48 h, pH 7, fluconazole-resistant isolate 1, pH 7",0.008 µg/mL
same,MIC,"[8]; 48 h, pH 7, fluconazole-resistant isolate 2, pH 7",0.03 µg/mL
